Source: the NIST ThermoML archive (doi:10.1021/je060200b)
Numbers after ± are expanded uncertainties.

Test: xn = mol fraction of the nth substance listed
Conditions: 101 kPa, Liquid; for speed of sound: Pulse-echo method; for mass density: Vibrating tube method

BrCCCCCBr [1,5-dibromopentane] + CCCCCCC
Conditions	mass density [kg/m3]	speed of sound [m/s]
292.38 K, x1 = 1	–	1149.5 ± 1.2
292.52 K, x1 = 0.1006	779.97 ± 0.21	–
292.52 K, x1 = 0.1994	875.92 ± 0.28	–
292.52 K, x1 = 0.3003	975.53 ± 0.39	–
292.52 K, x1 = 0.4008	1075.8 ± 0.51	–
292.52 K, x1 = 0.5004	1176.68 ± 0.64	–
292.52 K, x1 = 0.5999	1278.62 ± 0.62	–
292.52 K, x1 = 0.6995	1381.6 ± 0.65	–
292.52 K, x1 = 0.8002	1487.16 ± 0.7	–
292.52 K, x1 = 0.899	1591.59 ± 0.79	–
292.52 K, x1 = 1	1699.54 ± 0.91	–
292.56 K, x1 = 0.4	–	1103.5 ± 0.86
292.59 K, x1 = 0.5001	–	1104.2 ± 0.91
292.65 K, x1 = 0.2	–	1116.5 ± 0.8
292.68 K, x1 = 0.3001	–	1107.2 ± 0.83
292.73 K, x1 = 0.7999	–	1126.3 ± 1.1
292.75 K, x1 = 0.8998	–	1137.3 ± 1.1
292.76 K, x1 = 0.6	–	1108.4 ± 0.96
292.8 K, x1 = 0.6997	–	1116.2 ± 1
292.83 K, x1 = 0.1	–	1131.1 ± 0.79
298.05 K, x1 = 0.1006	775.18 ± 0.21	–
298.05 K, x1 = 0.1994	870.87 ± 0.28	–
298.05 K, x1 = 0.3003	969.84 ± 0.38	–
298.05 K, x1 = 0.4008	1070.23 ± 0.51	–
298.05 K, x1 = 0.5004	1170.91 ± 0.63	–
298.05 K, x1 = 0.5999	1272.47 ± 0.62	–
298.05 K, x1 = 0.6995	1375.26 ± 0.64	–
298.05 K, x1 = 0.8002	1480.47 ± 0.7	–
298.05 K, x1 = 0.899	1584.66 ± 0.79	–
298.05 K, x1 = 1	1691.87 ± 0.91	–
298.37 K, x1 = 1	–	1133 ± 1.2
298.59 K, x1 = 0.5001	–	1084.5 ± 0.89
298.62 K, x1 = 0.4	–	1082.8 ± 0.85
298.63 K, x1 = 0.2	–	1093.8 ± 0.78
298.67 K, x1 = 0.3001	–	1085.7 ± 0.81
298.73 K, x1 = 0.8998	–	1120.2 ± 1.1
298.76 K, x1 = 0.7999	–	1108.6 ± 1.1
298.77 K, x1 = 0.6	–	1089.6 ± 0.94
298.8 K, x1 = 0.6997	–	1098.1 ± 1
298.83 K, x1 = 0.1	–	1106.8 ± 0.76
303.06 K, x1 = 0.1006	770.79 ± 0.21	–
303.06 K, x1 = 0.1994	866 ± 0.28	–
303.06 K, x1 = 0.3003	964.71 ± 0.38	–
303.06 K, x1 = 0.4008	1064.63 ± 0.5	–
303.06 K, x1 = 0.5004	1165.02 ± 0.63	–
303.06 K, x1 = 0.5999	1266.37 ± 0.62	–
303.06 K, x1 = 0.6995	1368.9 ± 0.64	–
303.06 K, x1 = 0.8002	1474.36 ± 0.7	–
303.06 K, x1 = 0.899	1578.04 ± 0.79	–
303.06 K, x1 = 1	1684.89 ± 0.9	–
303.39 K, x1 = 1	–	1119.3 ± 1.2
303.59 K, x1 = 0.2	–	1075.1 ± 0.77
303.63 K, x1 = 0.3001	–	1068 ± 0.8
303.64 K, x1 = 0.4	–	1065.8 ± 0.84
303.64 K, x1 = 0.5001	–	1068.3 ± 0.89
303.67 K, x1 = 0.8998	–	1106.3 ± 1.1
303.71 K, x1 = 0.7999	–	1094.2 ± 1.1
303.72 K, x1 = 0.6	–	1074.2 ± 0.94
303.78 K, x1 = 0.6997	–	1083.1 ± 1
303.86 K, x1 = 0.1	–	1086.5 ± 0.76
308.08 K, x1 = 0.1006	766.31 ± 0.21	–
308.08 K, x1 = 0.1994	861.23 ± 0.28	–
308.08 K, x1 = 0.3003	959.36 ± 0.38	–
308.08 K, x1 = 0.4008	1058.93 ± 0.5	–
308.08 K, x1 = 0.5004	1159.11 ± 0.63	–
308.08 K, x1 = 0.5999	1260.5 ± 0.62	–
308.08 K, x1 = 0.6995	1362.98 ± 0.64	–
308.08 K, x1 = 0.8002	1467.91 ± 0.69	–
308.08 K, x1 = 0.899	1571.77 ± 0.78	–
308.08 K, x1 = 1	1678.03 ± 0.9	–
308.38 K, x1 = 1	–	1105.8 ± 1.2
308.55 K, x1 = 0.2	–	1056.4 ± 0.77
308.58 K, x1 = 0.4	–	1049.1 ± 0.84
308.58 K, x1 = 0.5001	–	1052.4 ± 0.88
308.67 K, x1 = 0.3001	–	1050 ± 0.8
308.67 K, x1 = 0.8998	–	1092.3 ± 1.1
308.69 K, x1 = 0.6	–	1058.9 ± 0.94
308.7 K, x1 = 0.7999	–	1079.8 ± 1.1
308.82 K, x1 = 0.6997	–	1068.1 ± 1
308.84 K, x1 = 0.1	–	1066.7 ± 0.75
314.36 K, x1 = 1	–	1089.7 ± 1.2
314.52 K, x1 = 0.5001	–	1033.4 ± 0.87
314.54 K, x1 = 0.3001	–	1029.3 ± 0.78
314.61 K, x1 = 0.2	–	1033.8 ± 0.75
314.66 K, x1 = 0.1006	760.22 ± 0.21	–
314.66 K, x1 = 0.1994	854.58 ± 0.28	–
314.66 K, x1 = 0.3003	952.58 ± 0.38	–
314.66 K, x1 = 0.4008	1052 ± 0.5	–
314.66 K, x1 = 0.5004	1151.72 ± 0.63	–
314.66 K, x1 = 0.5999	1252.55 ± 0.61	–
314.66 K, x1 = 0.6995	1354.65 ± 0.63	–
314.66 K, x1 = 0.8002	1459.75 ± 0.69	–
314.66 K, x1 = 0.899	1562.81 ± 0.78	–
314.66 K, x1 = 1	1668.75 ± 0.89	–
314.67 K, x1 = 0.4	–	1028.8 ± 0.82
314.68 K, x1 = 0.7999	–	1062.8 ± 1.1
314.7 K, x1 = 0.8998	–	1075.6 ± 1.1
314.75 K, x1 = 0.6	–	1040.2 ± 0.93
314.82 K, x1 = 0.6997	–	1050.3 ± 0.99
314.83 K, x1 = 0.1	–	1042.8 ± 0.72
